Patent US20150307520A1, “NOVEL HETEROARYL AND HETEROCYCLE COMPOUNDS, COMPOSITIONS AND METHODS THEREOF” (HUTCHISON MEDIPHARMA LIMITED, priority 2012, published 2015)
One block for each compound: values may come before it.

How the values were obtained:
Assay type in all cases: biochemical
p110β/p85α = p110β/p85α (Homo sapiens, UniProt P42338); assay: Transcreener KINASE Assay, kinase inhibition of p110β/p85α; conditions: for PI3Kβ IH % @ 1 uM: 1 uM test compound; for IC50: read-out: PI3Kβ IC50
Method in brief: (§1)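 ADP formation read by far-red competitive FP immunoassay (60 min RT detection step) after an 80 min RT kinase reaction; substrate added as a 30 uM PIP2/10 uM ATP solution (not final).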

p110δ/p85α = p110δ/p85α (Homo sapiens, UniProt O00329); assay: Transcreener KINASE Assay, kinase inhibition of p110δ/p85α; conditions: for PI3Kδ IH % @ 1 uM: 1 uM test compound; for IC50: read-out: PI3Kδ IC50
Chain of p110δ/p85α (O00329 whole entry): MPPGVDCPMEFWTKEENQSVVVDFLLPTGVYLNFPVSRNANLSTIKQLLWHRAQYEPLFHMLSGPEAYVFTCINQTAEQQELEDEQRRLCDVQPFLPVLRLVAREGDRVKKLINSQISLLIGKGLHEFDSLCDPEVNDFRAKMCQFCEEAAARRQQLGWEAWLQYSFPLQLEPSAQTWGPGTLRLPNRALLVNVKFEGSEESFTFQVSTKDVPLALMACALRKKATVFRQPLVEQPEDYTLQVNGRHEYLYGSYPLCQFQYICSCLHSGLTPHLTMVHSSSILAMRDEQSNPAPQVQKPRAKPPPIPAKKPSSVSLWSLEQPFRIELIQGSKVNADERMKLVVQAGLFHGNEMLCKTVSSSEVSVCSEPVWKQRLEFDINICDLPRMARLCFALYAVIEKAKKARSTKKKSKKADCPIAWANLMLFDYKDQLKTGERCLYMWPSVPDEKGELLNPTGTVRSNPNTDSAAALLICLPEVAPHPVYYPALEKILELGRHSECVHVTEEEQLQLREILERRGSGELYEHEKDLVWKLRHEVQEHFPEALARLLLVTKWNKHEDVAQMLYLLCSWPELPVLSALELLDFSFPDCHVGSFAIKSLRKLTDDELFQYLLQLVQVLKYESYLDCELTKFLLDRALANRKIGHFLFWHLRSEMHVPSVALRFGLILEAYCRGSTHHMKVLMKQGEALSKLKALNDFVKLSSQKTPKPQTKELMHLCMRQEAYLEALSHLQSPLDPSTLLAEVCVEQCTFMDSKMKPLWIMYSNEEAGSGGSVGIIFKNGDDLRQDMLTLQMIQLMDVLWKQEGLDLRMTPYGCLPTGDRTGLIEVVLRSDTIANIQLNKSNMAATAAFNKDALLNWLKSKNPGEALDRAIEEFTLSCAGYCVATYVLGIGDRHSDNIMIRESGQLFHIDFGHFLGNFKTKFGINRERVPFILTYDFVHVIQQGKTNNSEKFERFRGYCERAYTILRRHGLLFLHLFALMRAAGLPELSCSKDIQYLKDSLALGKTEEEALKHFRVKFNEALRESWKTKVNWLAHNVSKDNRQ
Chain of p110δ/p85α (P27986 whole entry partner): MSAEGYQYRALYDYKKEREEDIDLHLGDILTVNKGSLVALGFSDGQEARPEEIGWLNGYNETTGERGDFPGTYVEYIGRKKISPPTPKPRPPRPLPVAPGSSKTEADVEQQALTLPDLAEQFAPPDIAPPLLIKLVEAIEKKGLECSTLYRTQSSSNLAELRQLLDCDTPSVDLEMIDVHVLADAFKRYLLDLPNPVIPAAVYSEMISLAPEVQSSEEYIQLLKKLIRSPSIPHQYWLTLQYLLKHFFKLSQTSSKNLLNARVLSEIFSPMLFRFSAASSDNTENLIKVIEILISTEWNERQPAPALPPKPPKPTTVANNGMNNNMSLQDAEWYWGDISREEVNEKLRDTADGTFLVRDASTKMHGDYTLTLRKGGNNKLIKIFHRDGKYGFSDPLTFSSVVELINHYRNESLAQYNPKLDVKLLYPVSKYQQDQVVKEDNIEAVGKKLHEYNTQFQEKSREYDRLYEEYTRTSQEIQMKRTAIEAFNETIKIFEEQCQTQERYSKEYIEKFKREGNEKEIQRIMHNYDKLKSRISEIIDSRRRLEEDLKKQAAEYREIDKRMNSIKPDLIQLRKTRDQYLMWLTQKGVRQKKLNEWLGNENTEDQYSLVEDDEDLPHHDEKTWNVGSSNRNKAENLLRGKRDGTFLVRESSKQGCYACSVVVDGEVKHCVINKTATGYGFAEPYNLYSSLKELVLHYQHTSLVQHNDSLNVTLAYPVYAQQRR
Method in brief: as §1

p110γ = p110γ (Homo sapiens, UniProt P48736); assay: Transcreener KINASE Assay, kinase inhibition of p110γ; conditions: for PI3Kγ IH % @ 1 uM: 1 uM test compound; for IC50: read-out: PI3Kγ IC50
Chain of p110γ (P48736 whole entry, canonical isoform): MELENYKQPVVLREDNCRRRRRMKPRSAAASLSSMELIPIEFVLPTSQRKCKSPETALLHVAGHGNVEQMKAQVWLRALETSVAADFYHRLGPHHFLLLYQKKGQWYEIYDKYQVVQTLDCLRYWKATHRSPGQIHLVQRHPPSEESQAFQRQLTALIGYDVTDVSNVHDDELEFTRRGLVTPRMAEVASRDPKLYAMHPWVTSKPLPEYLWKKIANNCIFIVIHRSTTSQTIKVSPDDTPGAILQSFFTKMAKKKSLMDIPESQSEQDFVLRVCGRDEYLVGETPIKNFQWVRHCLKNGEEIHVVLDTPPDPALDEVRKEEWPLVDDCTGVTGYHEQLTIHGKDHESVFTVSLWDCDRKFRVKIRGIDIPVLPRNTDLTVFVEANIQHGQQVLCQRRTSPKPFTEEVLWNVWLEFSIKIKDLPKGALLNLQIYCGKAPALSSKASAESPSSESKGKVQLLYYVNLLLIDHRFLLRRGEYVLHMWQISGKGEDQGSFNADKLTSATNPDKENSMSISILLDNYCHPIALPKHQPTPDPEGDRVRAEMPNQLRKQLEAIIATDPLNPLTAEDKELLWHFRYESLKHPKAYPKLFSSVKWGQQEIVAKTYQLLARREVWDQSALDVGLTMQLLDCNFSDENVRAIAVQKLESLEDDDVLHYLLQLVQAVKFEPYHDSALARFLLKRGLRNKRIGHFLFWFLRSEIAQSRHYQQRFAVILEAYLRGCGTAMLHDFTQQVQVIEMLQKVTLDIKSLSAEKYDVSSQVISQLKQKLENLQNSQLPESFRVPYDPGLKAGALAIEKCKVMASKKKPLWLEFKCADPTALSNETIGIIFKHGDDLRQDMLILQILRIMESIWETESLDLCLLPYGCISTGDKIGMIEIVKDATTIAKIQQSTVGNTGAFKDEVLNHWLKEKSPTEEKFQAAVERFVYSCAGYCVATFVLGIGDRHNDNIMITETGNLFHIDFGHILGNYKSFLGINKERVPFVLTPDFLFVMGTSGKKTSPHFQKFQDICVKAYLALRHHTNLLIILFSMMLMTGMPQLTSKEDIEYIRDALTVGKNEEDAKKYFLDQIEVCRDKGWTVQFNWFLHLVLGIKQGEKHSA
Method in brief: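 Recombinant PI3K isoforms (p85α complexes or p110γ alone) reacted 80 min at room temperature, then ADP detection mix added for 60 min. ADP formation read by far-red competitive fluorescence polarization immunoassay; IC50 by curve fitting.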

Chain of p110β/p85α (P42338 whole entry): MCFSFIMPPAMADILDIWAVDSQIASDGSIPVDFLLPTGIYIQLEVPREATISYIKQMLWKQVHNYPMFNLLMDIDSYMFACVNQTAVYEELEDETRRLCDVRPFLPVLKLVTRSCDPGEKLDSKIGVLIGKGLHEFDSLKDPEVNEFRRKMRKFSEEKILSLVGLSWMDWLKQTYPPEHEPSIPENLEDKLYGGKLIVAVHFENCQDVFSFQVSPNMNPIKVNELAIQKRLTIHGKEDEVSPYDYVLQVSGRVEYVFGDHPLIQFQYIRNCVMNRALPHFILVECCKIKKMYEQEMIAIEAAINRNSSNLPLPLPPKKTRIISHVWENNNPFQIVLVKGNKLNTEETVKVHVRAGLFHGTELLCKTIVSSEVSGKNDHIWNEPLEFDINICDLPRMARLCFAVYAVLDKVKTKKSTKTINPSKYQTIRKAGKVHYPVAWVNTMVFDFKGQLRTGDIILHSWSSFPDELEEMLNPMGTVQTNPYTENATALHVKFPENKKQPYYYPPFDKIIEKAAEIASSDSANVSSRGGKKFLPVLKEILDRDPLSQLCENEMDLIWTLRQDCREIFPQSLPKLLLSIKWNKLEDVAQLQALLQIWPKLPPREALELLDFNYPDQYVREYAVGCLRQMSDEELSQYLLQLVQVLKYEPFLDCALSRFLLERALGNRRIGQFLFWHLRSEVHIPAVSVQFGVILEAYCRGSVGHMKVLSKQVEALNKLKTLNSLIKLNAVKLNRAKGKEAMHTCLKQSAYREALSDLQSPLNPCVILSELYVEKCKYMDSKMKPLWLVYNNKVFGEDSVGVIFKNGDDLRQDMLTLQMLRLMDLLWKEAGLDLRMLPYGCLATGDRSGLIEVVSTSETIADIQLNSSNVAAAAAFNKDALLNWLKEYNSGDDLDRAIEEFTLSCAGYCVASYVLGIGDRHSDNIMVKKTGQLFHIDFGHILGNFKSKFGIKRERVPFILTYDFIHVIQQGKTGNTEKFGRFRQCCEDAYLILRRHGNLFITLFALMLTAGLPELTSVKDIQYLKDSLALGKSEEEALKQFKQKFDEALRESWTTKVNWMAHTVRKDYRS
Chain of p110β/p85α (P27986 2-724 partner): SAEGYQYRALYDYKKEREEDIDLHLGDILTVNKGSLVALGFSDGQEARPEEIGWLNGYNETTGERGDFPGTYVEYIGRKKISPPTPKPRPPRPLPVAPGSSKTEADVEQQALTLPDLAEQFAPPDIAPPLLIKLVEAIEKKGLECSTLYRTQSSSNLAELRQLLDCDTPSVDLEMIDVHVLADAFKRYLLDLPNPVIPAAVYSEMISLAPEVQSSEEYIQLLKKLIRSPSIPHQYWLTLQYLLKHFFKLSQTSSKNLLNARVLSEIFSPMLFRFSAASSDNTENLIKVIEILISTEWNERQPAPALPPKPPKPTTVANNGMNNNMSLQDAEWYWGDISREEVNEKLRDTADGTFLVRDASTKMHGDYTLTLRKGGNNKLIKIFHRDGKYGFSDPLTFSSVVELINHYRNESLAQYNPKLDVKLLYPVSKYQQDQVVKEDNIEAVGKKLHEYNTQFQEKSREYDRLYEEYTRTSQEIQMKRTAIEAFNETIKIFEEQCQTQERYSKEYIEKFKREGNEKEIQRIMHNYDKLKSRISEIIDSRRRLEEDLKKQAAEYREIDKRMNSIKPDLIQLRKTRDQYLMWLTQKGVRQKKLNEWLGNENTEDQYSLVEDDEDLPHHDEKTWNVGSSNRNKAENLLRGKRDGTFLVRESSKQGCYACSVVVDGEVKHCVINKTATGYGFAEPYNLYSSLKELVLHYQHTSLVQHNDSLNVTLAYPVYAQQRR

SMILES: COc1ncc(-c2n[nH]c3ncnc(N4CCC[C@H]4c4nn5ccc(Cl)c5c(=O)n4-c4ccccc4)c23)cn1 [Compound 168]
PI3Kβ IH % @ 1 uM (p110β/p85α): 98.8%
PI3Kδ IH % @ 1 uM (p110δ/p85α): >100%
PI3Kγ IH % @ 1 uM (p110γ): 95.1%

SMILES: Nc1ccc(-c2n[nH]c3ncnc(N4CC[C@H]4c4nn5ccc(Cl)c5c(=O)n4-c4ccccc4)c23)cn1 [Compound 169]
PI3Kβ IH % @ 1 uM (p110β/p85α): −21.1%
PI3Kδ IH % @ 1 uM (p110δ/p85α): 88.0%
IC50 (p110δ/p85α): 4 nM
PI3Kγ IH % @ 1 uM (p110γ): 31.2%

SMILES: COc1ccc(-c2n[nH]c3ncnc(N4CC[C@H]4c4nn5ccc(Cl)c5c(=O)n4-c4ccccc4)c23)cn1 [Compound 170]
PI3Kβ IH % @ 1 uM (p110β/p85α): 4.6%
PI3Kδ IH % @ 1 uM (p110δ/p85α): 96.1%
IC50 (p110δ/p85α): 5 nM
PI3Kγ IH % @ 1 uM (p110γ): 66.5%

SMILES: Nc1ncc(-c2n[nH]c3ncnc(N4CC[C@H]4c4nn5ccc(Cl)c5c(=O)n4-c4ccccc4)c23)cn1 [Compound 171]
PI3Kβ IH % @ 1 uM (p110β/p85α): 25.2%
PI3Kδ IH % @ 1 uM (p110δ/p85α): 96.6%
IC50 (p110δ/p85α): 5 nM
PI3Kγ IH % @ 1 uM (p110γ): 75.3%
IC50 (p110γ): 130 nM

SMILES: N#Cc1ccc(-c2n[nH]c3ncnc(N4CC[C@H]4c4nn5ccc(Cl)c5c(=O)n4-c4ccccc4)c23)cn1 [Compound 173]
PI3Kβ IH % @ 1 uM (p110β/p85α): 25.7%
PI3Kδ IH % @ 1 uM (p110δ/p85α): 96.3%
IC50 (p110δ/p85α): 4 nM
PI3Kγ IH % @ 1 uM (p110γ): 48.7%

SMILES: Nc1ccc(-c2c[nH]c3ncnc(N4CCOC[C@H]4c4nn5ccc(Cl)c5c(=O)n4-c4ccccc4)c23)cn1 [Compound 176]
PI3Kβ IH % @ 1 uM (p110β/p85α): 16.8%
PI3Kδ IH % @ 1 uM (p110δ/p85α): 97.1%
IC50 (p110δ/p85α): 5 nM
PI3Kγ IH % @ 1 uM (p110γ): 58.3%

SMILES: O=c1c2c(CO)ccn2nc([C@@H]2CCCN2c2ncnc3[nH]cnc23)n1-c1ccccc1 [Compound 177, (S)-2-(1-(9H-purin-6-yl)pyrrolidin-2-yl)-5-(hydroxymethyl)-3-phenylpyrrolo[2,1-f][1,2,4]triazin-4(3H)-one]
PI3Kβ IH % @ 1 uM (p110β/p85α): 17.0%
PI3Kδ IH % @ 1 uM (p110δ/p85α): 97.1%
IC50 (p110δ/p85α): 30 nM
PI3Kγ IH % @ 1 uM (p110γ): 79.8%
IC50 (p110γ): 89 nM

SMILES: Nc1ncc(C(F)(F)F)c(N2CCC[C@H]2c2nn3ccc(CO)c3c(=O)n2-c2ccccc2)n1 [Compound 178]
PI3Kβ IH % @ 1 uM (p110β/p85α): 1.5%
PI3Kδ IH % @ 1 uM (p110δ/p85α): 82.3%
IC50 (p110δ/p85α): 211 nM
PI3Kγ IH % @ 1 uM (p110γ): 7.6%

SMILES: COc1ncc(-c2c[nH]c3ncnc(N4CC[C@H]4c4nn5ccc(F)c5c(=O)n4-c4ccccc4)c23)cn1 [Compound 181]
PI3Kβ IH % @ 1 uM (p110β/p85α): 95.9%
IC50 (p110β/p85α): 23 nM
PI3Kδ IH % @ 1 uM (p110δ/p85α): >100%
PI3Kγ IH % @ 1 uM (p110γ): >100%
IC50 (p110γ): 4 nM

SMILES: COc1ccc(-c2c[nH]c3ncnc(N4CC[C@H]4c4nn5ccc(F)c5c(=O)n4-c4ccccc4)c23)cn1 [Compound 182]
PI3Kβ IH % @ 1 uM (p110β/p85α): 93.3%
IC50 (p110β/p85α): 62 nM
PI3Kδ IH % @ 1 uM (p110δ/p85α): >100%
PI3Kγ IH % @ 1 uM (p110γ): 94.9%
IC50 (p110γ): 7 nM

SMILES: Nc1ccc(-c2c[nH]c3ncnc(N4CC[C@H]4c4nn5ccc(F)c5c(=O)n4-c4ccccc4)c23)cn1 [Compound 183]
PI3Kβ IH % @ 1 uM (p110β/p85α): 77.2%
IC50 (p110β/p85α): 331 nM
PI3Kδ IH % @ 1 uM (p110δ/p85α): >100%
PI3Kγ IH % @ 1 uM (p110γ): >100%
IC50 (p110γ): 5 nM

SMILES: CC(=O)c1c[nH]c2ncnc(N3CC[C@H]3c3nn4ccc(Cl)c4c(=O)n3-c3ccccc3)c12 [Compound 185, (S)-2-(1-(5-acetyl-7H-pyrrolo[2,3-d]pyrimidin-4-yl)azetidin-2-yl)-5-chloro-3-phenylpyrrolo[2,1-f][1,2,4]triazin-4(3H)-one]
PI3Kβ IH % @ 1 uM (p110β/p85α): 45.9%
PI3Kδ IH % @ 1 uM (p110δ/p85α): >100%
IC50 (p110δ/p85α): 6 nM
PI3Kγ IH % @ 1 uM (p110γ): 99.0%

SMILES: CS(=O)(=O)c1cccc(-n2c([C@@H]3CCCN3c3ncnc4[nH]cc(C#N)c34)nn3ccc(Cl)c3c2=O)c1 [Compound 192]
PI3Kβ IH % @ 1 uM (p110β/p85α): 65.3%
PI3Kδ IH % @ 1 uM (p110δ/p85α): 98.5%
IC50 (p110δ/p85α): 4 nM
PI3Kγ IH % @ 1 uM (p110γ): >100%
IC50 (p110γ): 18 nM

SMILES: CS(=O)(=O)c1cccc(-n2c([C@@H]3CCCN3c3ncnc4[nH]cnc34)nn3ccc(Cl)c3c2=O)c1 [Compound 193]
PI3Kβ IH % @ 1 uM (p110β/p85α): 31.5%
PI3Kδ IH % @ 1 uM (p110δ/p85α): >100%
IC50 (p110δ/p85α): 23 nM
PI3Kγ IH % @ 1 uM (p110γ): 93.7%
IC50 (p110γ): 121 nM

SMILES: N#Cc1c(N)ncnc1N1CC[C@H]1c1nn2ccc(Br)c2c(=O)n1-c1ccccc1 [Compound 194]
PI3Kβ IH % @ 1 uM (p110β/p85α): 29.5%
PI3Kδ IH % @ 1 uM (p110δ/p85α): >100%
IC50 (p110δ/p85α): 23 nM
PI3Kγ IH % @ 1 uM (p110γ): 75.1%
IC50 (p110γ): 150 nM

SMILES: C[S+]([O-])c1c[nH]c2ncnc(N3CC[C@H]3c3nn4ccc(Cl)c4c(=O)n3-c3ccccc3)c12 (stereo partly drawn) [Compound 196]
PI3Kβ IH % @ 1 uM (p110β/p85α): 32.3%
PI3Kδ IH % @ 1 uM (p110δ/p85α): 97.1%
IC50 (p110δ/p85α): 69 nM
PI3Kγ IH % @ 1 uM (p110γ): >100%
IC50 (p110γ): 65 nM

SMILES: C[S+]([O-])c1c[nH]c2ncnc(N3CC[C@H]3c3nn4ccc(Cl)c4c(=O)n3-c3ccc(F)cc3)c12 (stereo partly drawn) [Compound 199]
PI3Kβ IH % @ 1 uM (p110β/p85α): 17.1%
PI3Kδ IH % @ 1 uM (p110δ/p85α): 59.5%
IC50 (p110δ/p85α): 2000 nM
PI3Kγ IH % @ 1 uM (p110γ): 94.6%
IC50 (p110γ): 34 nM

Next, values leading:

PI3Kβ IH % @ 1 uM (p110β/p85α): 38.2%
PI3Kδ IH % @ 1 uM (p110δ/p85α): 99.6%
IC50 (p110δ/p85α): 2 nM
PI3Kγ IH % @ 1 uM (p110γ): 79.8%
IC50 (p110γ): 297 nM
SMILES: COc1ncc(-c2n[nH]c3ncnc(N4CC[C@H]4c4nn5ccc(Cl)c5c(=O)n4-c4ccccc4)c23)cn1 [Compound 172]

PI3Kβ IH % @ 1 uM (p110β/p85α): 97.7%
IC50 (p110β/p85α): 23 nM
PI3Kδ IH % @ 1 uM (p110δ/p85α): >100%
IC50 (p110δ/p85α): 1 nM
PI3Kγ IH % @ 1 uM (p110γ): 94.0%
IC50 (p110γ): 31 nM
SMILES: CC(Nc1ncnc2[nH]cc(-c3ccc(N)nc3)c12)c1cc2ncc(Cl)n2c(=O)n1-c1ccccc1 (stereo not drawn) [Compound 174]

PI3Kβ IH % @ 1 uM (p110β/p85α): 90.9%
IC50 (p110β/p85α): 78 nM
PI3Kδ IH % @ 1 uM (p110δ/p85α): 99.5%
IC50 (p110δ/p85α): 1 nM
PI3Kγ IH % @ 1 uM (p110γ): 87.6%
IC50 (p110γ): 105 nM
SMILES: COc1ncc(-c2c[nH]c3ncnc(NC(C)c4cc5ncc(Cl)n5c(=O)n4-c4ccccc4)c23)cn1 (stereo not drawn) [Compound 175]

PI3Kβ IH % @ 1 uM (p110β/p85α): 51.5%
PI3Kδ IH % @ 1 uM (p110δ/p85α): >100%
IC50 (p110δ/p85α): 2 nM
PI3Kγ IH % @ 1 uM (p110γ): 97.9%
IC50 (p110γ): 15 nM
SMILES: N#Cc1c[nH]c2ncnc(N3CCC[C@H]3c3nn4ccc(CO)c4c(=O)n3-c3ccccc3)c12 [Compound 179]

PI3Kβ IH % @ 1 uM (p110β/p85α): 92.8%
IC50 (p110β/p85α): 41 nM
PI3Kδ IH % @ 1 uM (p110δ/p85α): >100%
IC50 (p110δ/p85α): < 0.46 nM
PI3Kγ IH % @ 1 uM (p110γ): 98.7%
IC50 (p110γ): 2 nM
SMILES: Nc1ncc(-c2c[nH]c3ncnc(N4CC[C@H]4c4nn5ccc(F)c5c(=O)n4-c4ccccc4)c23)cn1 [Compound 180, (S)-2-(1-(5-(2-aminopyrimidin-5-yl)-7H-pyrrolo[2,3-d]pyrimidin-4-yl)azetidin-2-yl)-5-fluoro-3-phenylpyrrolo[2,1-f][1,2,4]triazin-4(3H)-one]

PI3Kβ IH % @ 1 uM (p110β/p85α): >100%
IC50 (p110β/p85α): 38 nM
PI3Kδ IH % @ 1 uM (p110δ/p85α): >100%
IC50 (p110δ/p85α): 0.5 nM
PI3Kγ IH % @ 1 uM (p110γ): 98.4%
IC50 (p110γ): 8 nM
SMILES: N#Cc1ncc(-c2c[nH]c3ncnc(N4CC[C@H]4c4nn5ccc(F)c5c(=O)n4-c4ccccc4)c23)cn1 [Compound 184]

PI3Kβ IH % @ 1 uM (p110β/p85α): 52.9%
PI3Kδ IH % @ 1 uM (p110δ/p85α): 92.0%
IC50 (p110δ/p85α): 3 nM
PI3Kγ IH % @ 1 uM (p110γ): 84.1%
SMILES: O=c1c2c(F)ccn2nc([C@@H]2CCCN2c2ncnc3[nH]cnc23)n1-c1ccccc1 [Compound 190]

PI3Kβ IH % @ 1 uM (p110β/p85α): 56.8%
PI3Kδ IH % @ 1 uM (p110δ/p85α): >100%
IC50 (p110δ/p85α): 3 nM
PI3Kγ IH % @ 1 uM (p110γ): >100%
IC50 (p110γ): 32 nM
SMILES: O=c1c2c(F)ccn2nc([C@@H]2CCCN2c2ncnc3[nH]cnc23)n1-c1cccc(F)c1 [Compound 191]
